{"source": "patent US11884612B2", "about": "“Covalent peptide binders” (The Regents of the University of California, priority 2016, dated 2024)", "key": {"His-tagged Mdm4": {"system": "His-tagged Mdm4", "test": "Covalent binding to purified Mdm4 (anti-His immunoblot band shift, ESI-MS)", "from_the_text": "FIG. 4. […] After separation by SDS-PAGE, an anti-His antibody was used to detect Mdm4."}, "Brca1-Bard1 interaction": {"molecular_target": "T1, Brca1-Bard1 interaction (Homo sapiens, UniProt P38398+Q99728)", "T1 construct": "expressed in transfected cells; host or cells: Saos-2 ReBiL reporter cells; lysate", "T1 sequence (P38398 whole entry)": "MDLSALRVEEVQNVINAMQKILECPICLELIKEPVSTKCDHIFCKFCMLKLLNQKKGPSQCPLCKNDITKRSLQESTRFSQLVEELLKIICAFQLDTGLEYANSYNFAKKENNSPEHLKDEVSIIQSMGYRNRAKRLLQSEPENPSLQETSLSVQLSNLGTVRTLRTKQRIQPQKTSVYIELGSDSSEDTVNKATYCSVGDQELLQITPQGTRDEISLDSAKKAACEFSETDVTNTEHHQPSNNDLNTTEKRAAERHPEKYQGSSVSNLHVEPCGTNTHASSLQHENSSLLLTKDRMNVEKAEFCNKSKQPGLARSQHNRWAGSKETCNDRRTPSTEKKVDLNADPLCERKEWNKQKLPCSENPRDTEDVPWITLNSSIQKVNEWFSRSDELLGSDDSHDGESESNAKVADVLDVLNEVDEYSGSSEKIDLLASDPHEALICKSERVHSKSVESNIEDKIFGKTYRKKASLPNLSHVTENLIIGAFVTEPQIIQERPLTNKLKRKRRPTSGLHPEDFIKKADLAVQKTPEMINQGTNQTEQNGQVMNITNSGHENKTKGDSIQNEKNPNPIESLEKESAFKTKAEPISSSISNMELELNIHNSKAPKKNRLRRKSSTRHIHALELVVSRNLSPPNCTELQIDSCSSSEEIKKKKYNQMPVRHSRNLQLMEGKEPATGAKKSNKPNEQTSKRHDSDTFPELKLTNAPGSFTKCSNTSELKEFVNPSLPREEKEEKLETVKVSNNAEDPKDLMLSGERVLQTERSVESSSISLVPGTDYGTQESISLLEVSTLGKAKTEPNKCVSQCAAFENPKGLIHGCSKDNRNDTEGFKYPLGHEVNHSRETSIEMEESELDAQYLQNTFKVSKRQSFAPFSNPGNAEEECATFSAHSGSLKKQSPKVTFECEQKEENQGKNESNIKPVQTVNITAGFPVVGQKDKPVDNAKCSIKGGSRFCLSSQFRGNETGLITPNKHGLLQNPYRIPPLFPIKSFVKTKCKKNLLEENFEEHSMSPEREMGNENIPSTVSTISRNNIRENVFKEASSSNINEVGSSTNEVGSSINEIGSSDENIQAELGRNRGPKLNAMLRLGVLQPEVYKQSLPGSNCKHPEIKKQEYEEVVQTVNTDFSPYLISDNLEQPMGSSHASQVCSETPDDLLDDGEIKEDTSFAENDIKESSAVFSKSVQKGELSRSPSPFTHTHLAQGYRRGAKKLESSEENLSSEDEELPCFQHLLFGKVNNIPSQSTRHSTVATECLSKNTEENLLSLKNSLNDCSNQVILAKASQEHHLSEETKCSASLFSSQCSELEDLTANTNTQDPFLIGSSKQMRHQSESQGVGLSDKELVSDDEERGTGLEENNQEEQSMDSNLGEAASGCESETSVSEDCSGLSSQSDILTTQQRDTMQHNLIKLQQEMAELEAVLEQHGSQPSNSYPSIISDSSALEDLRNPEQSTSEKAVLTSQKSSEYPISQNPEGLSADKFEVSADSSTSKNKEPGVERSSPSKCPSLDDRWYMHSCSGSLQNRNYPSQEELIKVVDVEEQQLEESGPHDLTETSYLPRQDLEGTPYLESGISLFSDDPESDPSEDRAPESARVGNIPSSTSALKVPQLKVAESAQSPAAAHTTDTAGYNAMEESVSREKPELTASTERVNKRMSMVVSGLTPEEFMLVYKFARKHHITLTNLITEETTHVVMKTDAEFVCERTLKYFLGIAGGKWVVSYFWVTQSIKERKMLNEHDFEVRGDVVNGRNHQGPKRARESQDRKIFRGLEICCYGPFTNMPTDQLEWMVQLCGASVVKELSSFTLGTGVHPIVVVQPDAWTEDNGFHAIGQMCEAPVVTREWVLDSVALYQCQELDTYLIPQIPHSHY", "T1 sequence (Q99728 whole entry)": "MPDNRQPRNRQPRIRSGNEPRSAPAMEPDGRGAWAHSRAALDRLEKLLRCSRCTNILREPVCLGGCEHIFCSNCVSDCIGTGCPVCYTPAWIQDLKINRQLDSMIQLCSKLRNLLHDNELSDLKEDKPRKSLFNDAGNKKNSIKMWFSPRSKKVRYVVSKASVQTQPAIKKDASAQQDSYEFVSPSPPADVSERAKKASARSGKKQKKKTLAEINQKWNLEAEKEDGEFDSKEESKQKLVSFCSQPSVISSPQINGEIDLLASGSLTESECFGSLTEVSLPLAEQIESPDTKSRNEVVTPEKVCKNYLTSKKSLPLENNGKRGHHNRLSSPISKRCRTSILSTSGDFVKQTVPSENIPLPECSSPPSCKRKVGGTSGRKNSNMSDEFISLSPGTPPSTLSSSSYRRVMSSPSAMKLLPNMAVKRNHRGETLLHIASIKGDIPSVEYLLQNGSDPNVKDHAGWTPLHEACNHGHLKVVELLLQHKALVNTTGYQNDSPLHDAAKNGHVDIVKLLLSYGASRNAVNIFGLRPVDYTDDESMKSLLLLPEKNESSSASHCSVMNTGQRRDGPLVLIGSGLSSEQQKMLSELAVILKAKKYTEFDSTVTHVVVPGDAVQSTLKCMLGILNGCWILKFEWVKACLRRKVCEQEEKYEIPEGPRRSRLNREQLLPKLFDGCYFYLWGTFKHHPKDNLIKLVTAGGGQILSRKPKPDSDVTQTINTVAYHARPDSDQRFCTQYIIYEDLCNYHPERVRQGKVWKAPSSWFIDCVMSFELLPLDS", "test": "ReBiL assay of peptide inhibition of Brca1-Bard1 interaction in cell lysates (binding selectivity)", "assay_type": "biochemical", "conditions": "cell lysates of Saos-2 cells", "method": "To test the binding selectivity of peptides 2, 4 and 5, we then incubated the peptides with cell lysates of Saos-2 cells harboring ReBiL system expressing Brca1-Bard1 instead of p53-Mdm2/Mdmx."}, "p53-Mdm4 interaction": {"molecular_target": "T2, p53-Mdm4 interaction (Homo sapiens, UniProt O15151)", "T2 construct": "expressed in transfected cells; host or cells: Saos-2 (p53-null) ReBiL reporter cells; lysate", "T2 sequence (O15151 1-490)": "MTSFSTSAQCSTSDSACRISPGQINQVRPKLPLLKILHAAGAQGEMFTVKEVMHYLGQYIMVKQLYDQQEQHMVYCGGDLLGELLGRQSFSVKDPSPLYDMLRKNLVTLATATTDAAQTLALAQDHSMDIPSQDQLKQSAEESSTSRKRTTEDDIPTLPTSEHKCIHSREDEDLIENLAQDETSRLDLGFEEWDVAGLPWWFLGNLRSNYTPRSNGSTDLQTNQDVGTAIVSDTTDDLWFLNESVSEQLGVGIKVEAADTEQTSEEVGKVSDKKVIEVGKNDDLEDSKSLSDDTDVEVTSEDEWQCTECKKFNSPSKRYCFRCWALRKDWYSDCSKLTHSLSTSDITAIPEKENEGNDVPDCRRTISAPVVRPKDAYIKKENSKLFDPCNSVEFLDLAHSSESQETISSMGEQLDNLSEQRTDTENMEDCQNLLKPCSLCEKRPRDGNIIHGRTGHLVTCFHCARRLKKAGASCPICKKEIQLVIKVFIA", "test": "ReBiL assay of peptide inhibition of p53-Mdm4 interaction in cell lysates", "assay_type": "biochemical", "conditions": "Saos-2 cell lysates", "from_the_text": "In ReBiL, luciferase is split and separately fused to Mdm2/Mdm4 and p53, and the expression cassette is integrated into a single chromosomal site in host cells (FIG. 3A). Inhibition of the interaction between p53 and Mdm2/Mdm4 results in a decrease in luciferase activity."}, "p53 null Saos-2 cells": {"system": "p53 null Saos-2 cells", "test": "Cell viability (p53-independent cytotoxicity), CELL TITER-GLO assay", "conditions": "37° C., 8 h, 50, 25, 12.5 uM", "quoted_text": "Error bars are s.e.m. (n=5) and normalized to the luminescence reading of DMSO treated cells.\nCell viability was measured on the p53-null Saos-2 cells by CELL TITER-GLO® assay per Promega's instructions. Peptides were incubated with the Saos-2 cells at 37° C. for 8 h."}}, "note": "“Also recorded” adds a separate entry of the source. Positions of bridges follow the written chain, without caps; N, C: chain ends. Non-standard residues stand in square brackets, D forms with d. Residues, ends and D or L forms follow the SMILES beside them. *: point of attachment. Benzoyl(3-SO2F) = O=C(c1cccc(S(=O)(=O)F)c1)*; R8 = C=CCCCCCC[C@@](C)(N)C(=O)O; S5 = C=CCCC[C@](C)(N)C(=O)O; Dap = NC[C@H](N)C(=O)O", "data": [{"smiles": "CC(=O)N[C@@H](CCC(N)=O)C(=O)N[C@@H](CO)C(=O)N[C@@H](CCC(N)=O)C(=O)N[C@@H](CCC(N)=O)C(=O)N[C@H](C(=O)N[C@@H](Cc1ccccc1)C(=O)N[C@]1(C)CCCCCCC=CCCC[C@@](C)(C(=O)N[C@@H](CCC(N)=O)C(=O)N[C@@H](CC(N)=O)C(N)=O)NC(=O)[C@H](CC(C)C)NC(=O)[C@H](CC(C)C)NC(=O)[C@H](CCCNC(=N)N)NC(=O)[C@H](Cc2c[nH]c3ccccc23)NC(=O)[C@H](CNC(=O)c2cccc(S(=O)(=O)F)c2)NC(=O)[C@H](CC(N)=O)NC1=O)[C@@H](C)O", "note": "[Peptide 4] (Ac-QSQQTF[R8]N[Dap](Benzoyl(3-SO2F))WRLL[S5]QN-NH2; staple 7-14 (inferred))", "values": [{"measurement": "time until crosslinking (\"sulfate click reaction\") with Mdm4 was complete", "setting": "His-tagged Mdm4; 37° C., PBS buffer pH 7.5", "result": "≤ 10", "unit": "min"}, {"measurement": "shift of Mdm4 band to higher molecular weight (covalent binding), immunoblot", "setting": "His-tagged Mdm4; Mdm4 1.5 μM, peptide 3 μM, PBS buffer pH 7.5, 37° C., 10, 20 and 60 min", "result": "shifted the Mdm4 band to a higher molecular weight; also recorded: shift of the band to a higher molecular weight"}, {"measurement": "covalent complex formation with Mdm4 by ESI-MS", "setting": "His-tagged Mdm4; incubated 60 min", "result": "confirmed the covalent complex formation"}, {"measurement": "inhibition of Brca1-Bard1 interaction", "setting": "Brca1-Bard1 interaction", "result": "did not inhibit"}, {"measurement": "activity to Mdm4 relative to Mdm2", "setting": "p53-Mdm4 interaction", "result": "ten-fold higher"}, {"measurement": "cell viability / cytotoxicity", "setting": "p53 null Saos-2 cells", "result": "no significant cytotoxicity; also recorded: nontoxic"}]}]}
